For the test, the target named is T1, human orexin type 2 receptor (hOX2R) (Homo sapiens, UniProt O43614).
T1 construct: expressed in transfected cells
T1 sequence (O43614 1-444): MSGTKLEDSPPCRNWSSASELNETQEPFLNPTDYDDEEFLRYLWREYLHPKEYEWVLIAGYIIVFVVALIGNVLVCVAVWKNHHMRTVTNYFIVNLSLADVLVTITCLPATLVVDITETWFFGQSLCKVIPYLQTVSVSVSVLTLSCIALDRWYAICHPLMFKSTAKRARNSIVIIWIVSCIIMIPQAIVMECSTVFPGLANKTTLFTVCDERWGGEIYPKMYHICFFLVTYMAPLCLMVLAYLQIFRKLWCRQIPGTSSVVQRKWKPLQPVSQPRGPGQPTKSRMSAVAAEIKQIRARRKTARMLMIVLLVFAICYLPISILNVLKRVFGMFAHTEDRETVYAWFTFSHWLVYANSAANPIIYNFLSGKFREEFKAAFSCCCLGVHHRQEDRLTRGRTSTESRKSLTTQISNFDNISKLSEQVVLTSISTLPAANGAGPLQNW
The test can be described thus: Measurement of orexin type 2 receptor agonist activity (FLIPR calcium fluorescence). Type of test: cell-based. Conditions: for EC50: read-out: hOx2 pEC50 (converted); for Emax: CHO, read-out: hOx2 Emax (%). The essentials: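 Agonism was read as fluorescence in cells stably expressing human OX2R. E. is the response at 10 μM relative to orexin A as full agonist (100%).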

[1] abbreviates: CHO cells expressing hOX2R, FLIPR calcium fluorescence.

Molecules are shown by their SMILES. Read-outs that look alike come from different tables or passages of the source.

Regarding `O=C([C@@H](O)C1CC1)N1CC2(CC2)[C@H](NS(=O)(=O)C(F)F)[C@@H]1Cc1cc(F)cc(-c2ccccc2)c1F` [Compound 385], under setting [1], the EC50 was 0.0794 to 1 nM and the Emax (commonly the maximal effect, on the per cent scale that the assay sets) is 90 to 100%.

Turning to `O=C(NCC1(F)CC1)N1CC2(CC2)[C@H](NS(=O)(=O)CF)[C@@H]1Cc1cccc(-c2ccccc2)c1F` [Compound 157, (6S,7S)-6-((2-fluoro-[1,1′-biphenyl]-3-yl)methyl)-N-((1-fluorocyclopropyl)methyl)-7-((fluoromethyl)sulfonamido)-5-azaspiro[2.4]heptane-5-carboxamide], under setting [1], the EC50 is 0.0794 to 1 nM and the Emax fell in the range of 90 to 100%.

Consider `CC(C)(O)C(=O)N1CC2(CC2)[C@H](NS(C)(=O)=O)[C@@H]1Cc1cccc(-c2cc(F)cc(F)c2)c1F` [Compound 34, N-((6S,7S)-5-(2-hydroxy-2-methylpropanoyl)-6-((2,3′,5′-trifluoro-[1,1′-biphenyl]-3-yl)methyl)-5-azaspiro[2.4]heptan-7-yl)methanesulfonamide], for which, under setting [1], the EC50 was 1 to 10 nM and the Emax is 90 to 100%.

`CS(=O)(=O)N[C@@H]1[C@H](Cc2cccc(-c3ccccc3)c2F)N(C(=O)NCC(F)(F)F)CC12CC2` [Compound 99, (6S,7S)-6-((2-fluoro-[1,1′-biphenyl]-3-yl)methyl)-7-(methylsulfonamido)-N-(2,2,2-trifluoroethyl)-5-azaspiro[2.4]heptane-5-carboxamide]: the Emax lay in the range of 90 to 100%. Also, the EC50 under setting [1] was 1 to 10 nM.

In the case of `O=C(NC[C@@H]1CCO1)N1CC2(CC2)[C@H](NS(=O)(=O)C(F)F)[C@@H]1Cc1cccc(-c2ccccc2)c1F` [Compound 368, (6S,7S)-7-((difluoromethyl)sulfonamido)-6-((2-fluoro-[1,1′-biphenyl]-3-yl)methyl)-N-(((S)-oxetan-2-yl)methyl)-5-azaspiro[2.4]heptane-5-carboxamide], under setting [1], the EC50 is 1 to 10 nM and the Emax lay within 90 to 100%.

For the compound `CS(=O)(=O)N[C@@H]1[C@H](Cc2cccc(-c3ccccc3)c2F)N(C(=O)NC[C@@H]2CCO2)CC12CC2` [Compound 333, (6S,7S)-6-((2-fluoro-[1,1′-biphenyl]-3-yl)methyl)-7-(methylsulfonamido)-N-(((S)-oxetan-2-yl)methyl)-5-azaspiro[2.4]heptane-5-carboxamide], under setting [1], the EC50 is 1 to 10 nM and the Emax is 90 to 100%.

As to `CS(=O)(=O)N[C@@H]1[C@H](Cc2cccc(-c3ccccc3)c2)N(C(=O)C23CC2C3)CC12CC2` (stereo partly drawn) [Compound 113, N-((6S,7S)-6-([1,1′-biphenyl]-3-ylmethyl)-5-(bicyclo[1.1.0]butane-1-carbonyl)-5-azaspiro[2.4]heptan-7-yl)methanesulfonamide], under setting [1], the EC50 is 1 to 10 nM and the Emax is 90 to 100%.

For `CS(=O)(=O)N[C@@H]1[C@H](Cc2cccc(-c3ccccc3)c2F)N(C(=O)N2CC(F)(F)C2)CC12CC2` [Compound 87, N-((6S,7S)-5-(3,3-difluoroazetidine-1-carbonyl)-6-((2-fluoro-[1,1′-biphenyl]-3-yl)methyl)-5-azaspiro[2.4]heptan-7-yl)methanesulfonamide], under setting [1], the EC50 was 10 to 100 nM and the Emax lay within 90 to 100%.

Consider `O=C([C@@H](O)C1CC1)N1CC2(CC2)[C@H](NS(=O)(=O)C(F)F)[C@@H]1Cc1cc(F)cc(-c2cc(F)cc(F)c2)c1F` [Compound 384, N-((6S,7S)-5-((S)-2-cyclopropyl-2-hydroxyacetyl)-6-((2,3′,5,5′-tetrafluoro-[1,1′-biphenyl]-3-yl)methyl)-5-azaspiro[2.4]heptan-7-yl)-1,1-difluoromethanesulfonamide], for which, under setting [1], the EC50 was 1 to 10 nM and the Emax fell in the range of 90 to 100%.

Turning to `CS(=O)(=O)N[C@@H]1[C@H](Cc2cccc(-c3ccccc3)c2)N(C(=O)C2(C#N)CCO2)CC12CC2` (stereo partly drawn) [Compound 47, N-((6S,7S)-6-([1,1′-biphenyl]-3-ylmethyl)-5-(2-cyanooxetane-2-carbonyl)-5-azaspiro[2.4]heptan-7-yl)methanesulfonamide], under setting [1], the EC50 was 10 to 100 nM and the Emax lay within 90 to 100%.

For `O=C([C@H]1CCO1)N1CC2(CC2)[C@H](NS(=O)(=O)C(F)F)[C@@H]1Cc1cccc(-c2ccccc2)c1` [Compound 115, N-((6S,7S)-6-([1,1′-biphenyl]-3-ylmethyl)-5-((R)-oxetane-2-carbonyl)-5-azaspiro[2.4]heptan-7-yl)-1,1-difluoromethanesulfonamide], the maximal effect (Emax) lay within 90 to 100%. For the same compound, the EC50 under setting [1] is 1 to 10 nM.

As for `CS(=O)(=O)N[C@@H]1[C@H](Cc2cccc(-c3ccccc3)c2)N(C(=O)[C@H](O)C(F)(F)F)CC12CC2` [Compound 43, N-((6S,7S)-6-([1,1′-biphenyl]-3-ylmethyl)-5-((S)-3,3,3-trifluoro-2-hydroxypropanoyl)-5-azaspiro[2.4]heptan-7-yl)methanesulfonamide], under setting [1], the “hOx2 Emax (%)” value is “A (Emax ranging between 90 and 100)”; the EC50 was 1 to 10 nM.

Turning to `CS(=O)(=O)N[C@@H]1[C@H](Cc2cccc(-c3ccccc3)c2)N(C(=O)[C@H](O)C(F)(F)F)CC12CC2` [Compound 299, N-((6S,7S)-6-([1,1′-biphenyl]-3-ylmethyl)-5-((S)-3,3,3-trifluoro-2-hydroxypropanoyl)-5-azaspiro[2.4]heptan-7-yl)methanesulfonamide], under setting [1], the EC50 was 10 to 100 nM and the Emax lay within 90 to 100%.

For `C[C@H](F)CNC(=O)N1CC2(CC2)[C@H](NS(C)(=O)=O)[C@@H]1Cc1cccc(-c2ccccc2)c1F` [Compound 84, (6S,7S)-6-((2-fluoro-[1,1′-biphenyl]-3-yl)methyl)-N-((S)-2-fluoropropyl)-7-(methylsulfonamido)-5-azaspiro[2.4]heptane-5-carboxamide], under setting [1], the EC50 was 0.0794 to 1 nM and the Emax fell in the range of 90 to 100%.

Turning to `CS(=O)(=O)N[C@@H]1[C@H](Cc2cccc(-c3ccccc3)c2F)N(C(=O)[C@H](O)C(F)F)CC12CC2` [Compound 351, N-((6S,7S)-5-((S)-3,3-difluoro-2-hydroxypropanoyl)-6-((2-fluoro-[1,1′-biphenyl]-3-yl)methyl)-5-azaspiro[2.4]heptan-7-yl)methanesulfonamide], under setting [1], the EC50 was 10 to 100 nM and the Emax was 90 to 100%.

Regarding `CNS(=O)(=O)N[C@@H]1[C@H](Cc2cccc(-c3ccccc3)c2)N(C(=O)[C@H]2CCO2)CC12CC2` [Compound 71], under setting [1], the EC50 was 1 to 10 nM and the Emax lay within 90 to 100%.

On to `COCCNC(=O)N1CC2(CC2)[C@H](NS(C)(=O)=O)[C@@H]1Cc1cccc(-c2ccccc2)c1F` [Compound 311, (6S,7S)-6-((2-fluoro-[1,1′-biphenyl]-3-yl)methyl)-N-(2-methoxyethyl)-7-(methylsulfonamido)-5-azaspiro[2.4]heptane-5-carboxamide], for which, under setting [1], the EC50 was 1 to 10 nM and the Emax was 90 to 100%.

In the case of `CC(F)C(=O)N1CC2(CC2)C(NS(C)(=O)=O)C1Cc1cccc(-c2ccccc2)c1` (single isomer, unassigned) [Compound 1, N-(6-([1,1′-biphenyl]-3-ylmethyl)-5-(2-fluoropropanoyl)-5-azaspiro[2.4]heptan-7-yl)methanesulfonamide], under setting [1], the EC50 was 10 to 100 nM and the Emax is 70 to 80%.

For `CC(F)(F)C(=O)N1CC2(CC2)C(NS(C)(=O)=O)C1Cc1cccc(-c2ccccc2)c1` (racemic) [Compound 9, N-(6-([1,1′-biphenyl]-3-ylmethyl)-5-(2,2-difluoropropanoyl)-5-azaspiro[2.4]heptan-7-yl)methanesulfonamide], under setting [1], the EC50 is 100 to 1000 nM and the maximal effect (Emax) fell in the range of 40 to 50%.

The values are drawn from patent publication US12503475B2 (Centessa Pharmaceuticals (UK) Limited, priority 2020, dated 2025).
